18 molecules from US20040116420A1 (priority 2001, published 2004) can be followed below.

Structures are written as SMILES. pIC50: −log10 of the molar value.

One data set deals with Vero cells. Kind of data set: Cytotoxicity, Vero cells, Alamar Blue. The data set is classed as cell-based. Conditions: 25 μM, 20 hours. The essentials:
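Overnight-seeded Vero cells were exposed to 25 μM compound in 2% FBS-DMEM for 20 h at 37 °C, 5% CO2. Alamar Blue was then added for about 6 h. The absorbance ratio relative to compound-free control gave the living-cell ratio.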
In general terms: The colour change of resazurin is a common sign of viable cells or microbes.

The next data set concerns HSV-1. Kind of data set: Antiviral activity, HSV-1 in Vero cells, plaque method. In kind it is cell-based. To be noted: Human alphaherpesvirus 1, 20 hours, 90% inhibition of plaque formation. The essentials: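 HSV-1 (50,000 pfu in 2% FBS-DMEM) was added to Vero cells and removed, then the compound was applied in 2% FBS-DMEM for 20 h at 37° C, 5% CO2. After a freeze-thaw, virus yield in the medium was titred by plaque assay. EC90 is the concentration giving 90% plaque reduction versus the compound-free control.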

The nature of the next data set: Human plasma stability. In kind it is in vitro ADME. As to the method: An Assay Method for Human Plasma Stability Human plasma was thawed, 200 μl each thereof was placed in each cell of a 96-well plate immediately thereafter, and 4 μl of solution of each test compound in 1 mM DMF was added thereto. A microplate reader for fluorescence absorption was used to assay changes in fluorescence, and half life was determined based on the changes.

A further data set has as its target T1, HSV-1 protease (Human herpesvirus 1, UniProt P10210).
T1 construct: 6xHis (N); made in house; host or cells: baculovirus expression system
Nature of the data set: Enzymatic assay for HSV-1 protease (assembly) inhibitor, fluorescence polarization. In kind it is biochemical. Conditions: read-out: HSV-1 Enzyme inhibition IC50. In short, it runs like this:
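His6-tagged HSV-1 UL26 protease, baculovirus-expressed, preincubated 30 min at RT with compound in 1 M citrate/phosphate buffer pH 7.4 with 20% glycerol and 2 mM TCEP. A biotin-HTYLQA*SERFRIK-DTAF substrate was then cleaved for 60 min at RT, stopped with avidin, and read by fluorescence polarization versus no-inhibitor control.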
(In general: Fluorescence polarisation rises when a labelled molecule tumbles more slowly, as on binding a larger partner.)

T1 sequence (P10210 1-247): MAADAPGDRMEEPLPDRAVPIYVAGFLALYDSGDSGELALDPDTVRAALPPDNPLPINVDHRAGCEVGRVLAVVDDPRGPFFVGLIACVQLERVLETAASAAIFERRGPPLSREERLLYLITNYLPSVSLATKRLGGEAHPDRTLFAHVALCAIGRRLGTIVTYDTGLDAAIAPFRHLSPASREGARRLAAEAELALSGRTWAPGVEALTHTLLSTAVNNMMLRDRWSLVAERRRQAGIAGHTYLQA

The term EC90 denotes the concentration needed for an effect of 90%. By half-life is commonly meant the time needed for the level to fall by half in the phase considered. A higher half-life goes with slow loss. As usually defined, the pIC50 is −log10 of the IC50, conventionally taken in molar units. Consider `Cc1c(NC(=O)OC(C)(C)C)ccc2nc(NC(C)(C)C(=O)N(C)CCc3cccnc3)oc(=O)c12` [Compound No.19, (5-Methyl-2-{1-methyl-1-[methyl-(2-pyridin-3-yl-ethyl)-carbamoyl]-ethylamino}-4-oxo-4H-benzo[d][1,3]oxazin-6-yl)-carbamic Acid Tert-Butyl Ester], for which the “Cell viability (% of control)” value in the data set with Vero cells is given as 106.0%. The EC90 in the data set with HSV-1 came out at 6.2 µM. This molecule gave a half-life at 19.6 μM in “Human plasma stability” of 372 min. Besides, the pIC50 at HSV-1 protease is 6.52.

Turning to `Cc1c(NC(=O)OC(C)(C)C)ccc2nc(N[C@@H](Cc3ccccc3)C(=O)NCc3ccccn3)oc(=O)c12` [Compound No.20, (5-Methyl-4-oxo-{2-2-phenyl-1S-[(pyridin-2-ylmethyl)-carbamoyl]-ethylamino}-4H-benzo[d][1,3]oxazin-6-yl)-carbamic Acid Tert-Butyl Ester], the “Cell viability (% of control)” value in the data set on Vero cells is on record as 101.0%. In the data set with HSV-1, it took 5.9 µM to reach the 90% level (EC90). The molecule also returned a half-life at 19.6 μM in the data set “Human plasma stability” of 88 min. Also, on HSV-1 protease, the pIC50 was 6.30.

As for `Cc1c(NC(=O)OC(C)(C)C)ccc2nc(NC(C)(C)C(=O)N(C)Cc3ccccn3)oc(=O)c12` [Compound No.59, {5-Methyl-2-[1-methyl-1-(methyl-pyridin-2-ylmethyl-carbamoyl)-ethylamino]-4-oxo-4H-benzo[d][1,3]oxazin-6-yl}-carbamic acid tert-butyl ester], in the data set with Vero cells, the “Cell viability (% of control)” value is 106.0%. The molecule further gave an EC90 in the data set on HSV-1 of 10.1 µM. In addition, the half-life at 19.6 μM in “Human plasma stability” came out at 308 min. On HSV-1 protease, the pIC50 is 5.96.

`COc1ccc(CC(Nc2nc3ccc(NC(=O)OC(C)(C)C)c(C)c3c(=O)o2)C(=O)NCc2ccccn2)cc1` (stereo not drawn) [compound 230, (2-{2-(4-Methoxy-phenyl)-1-[(pyridin-2-ylmethyl)-carbamoyl]-ethylamino}-5-methyl-4-oxo-4H-benzo[d][1,3]oxazin-6-yl)-carbamic acid tert-butyl ester, reference compound] registered an EC90 in the data set with HSV-1 of 6.1 µM. The half-life at 19.6 μM in the data set “Human plasma stability” was 27 min. The pIC50 at HSV-1 protease is 6.40.

In the case of `Cc1c(NC(=O)c2ccc(Cl)cc2)ccc2nc(NC(C)(C)C(=O)N(C)CCc3ccccn3)oc(=O)c12` [Compound No.153, 4-Chloro-N-(5-methyl-2-{1-methyl-1-[methyl-(2-pyridin-2-yl-ethyl)-carbamoyl]-ethylamino}-4-oxo-4H-benzo[d][1,3]oxazin-6-yl)-benzamide], the “Cell viability (% of control)” value with Vero cells worked out at 48.6%. Moreover, in the data set with HSV-1, the 90% effect level (EC90) was put at 6.2 µM. Besides, the pIC50 on HSV-1 protease is 5.59.

Regarding `Cc1c(NC(=O)c2ccc([N+](=O)[O-])o2)ccc2nc(NC(C)(C)C(=O)N(C)CCc3ccccn3)oc(=O)c12` [Compound No.177, 5-Nitro-furan-2-carboxylic acid (5-methyl-2-{1-methyl-1-[methyl-(2-pyridin-2-yl-ethyl)-carbamoyl]-ethylamino}-4-oxo-4H-benzo[d][1,3]oxazin-6-yl)-amide], in the data set on Vero cells, the “Cell viability (% of control)” value was 38.0%. Besides, the EC90 with HSV-1 is > 12.5 µM. Further, the pIC50 on HSV-1 protease was 5.22.

Turning to `COc1cc(OC)cc(C(=O)Nc2ccc3nc(NC(C)(C)C(=O)N(C)CCc4ccccn4)oc(=O)c3c2C)c1` [compound 191, 3,5-Dimethoxy-N-(5-methyl-2-{1-methyl-1-[methyl-(2-pyridin-2-yl-ethyl)-carbamoyl]-ethylamino}-4-oxo-4H-benzo[d][1,3]oxazin-6-yl)-benzamide], the “Cell viability (% of control)” value with Vero cells is 89.1%. In the data set on HSV-1, the concentration for an effect of 90% (EC90) was > 12.5 µM. Moreover, the pIC50 at HSV-1 protease was 6.22.

As for `Cc1c(NC(=O)OC(C)(C)C)ccc2nc(N(C)[C@@H](C)C(=O)N(C)CCc3ccncc3)oc(=O)c12` [Compound No.78, [5-Methyl-2-(methyl-{1S-[methyl-(2-pyridin-4-yl-ethyl)-carbamoyl]-ethyl}-amino)-4-oxo-4H-benzo[d][1,3]oxazin-6-yl]-carbamic acid tert-butyl ester], the “Cell viability (% of control)” value in the data set with Vero cells worked out at 90.7%. The EC90 in the data set on HSV-1 is > 12.5 µM. Moreover, on HSV-1 protease, the pIC50 was 5.85.

Consider `Cc1c(NC(=O)OC(C)(C)C)ccc2nc(N3Cc4ccccc4C[C@H]3C(=O)N(C)CCc3cccnc3)oc(=O)c12` [Compound No.100, (5-Methyl-2-{3S-[methyl-(2-pyridin-3-yl-ethyl)-carbamoyl]-3,4-dihydro-1H-isoquinolin-2-yl}-4-oxo-4H-benzo[d][1,3]oxazin-6-yl)-carbamic acid tert-butyl ester], for which the “Cell viability (% of control)” value in the data set on Vero cells is recorded as 44.1%. For the same molecule, the EC90 in the data set on HSV-1 was 11.8 µM. Moreover, on HSV-1 protease, the pIC50 was 5.01.

Regarding `Cc1c(NC(=O)c2cccc(C(Cl)Cl)c2)ccc2nc(NC(C)(C)C(=O)N(C)CCc3ccccn3)oc(=O)c12` [Compound No.183, 3-Dichloromethyl-N-(5-methyl-2-{1-methyl-1-[methyl-(2-pyridin-2-yl-ethyl)-carbamoyl]-ethylamino}-4-oxo-4H-benzo[d][1,3]oxazin-6-yl)-benzamide], the “Cell viability (% of control)” value in the data set with Vero cells amounted to 101.0%. The EC90 with HSV-1 was > 12.5 µM. In addition, the pIC50 at HSV-1 protease is 5.89.

`Cc1c(NC(=O)OC(C)(C)C)ccc2nc(N(C)[C@@H](C)C(=O)NCc3ccncc3)oc(=O)c12` [Compound No.73, [5-Methyl-2-(methyl-{1S-[(pyridin-4-ylmethyl)-carbamoyl]-ethyl}-amino)-4-oxo-4H-benzo[d][1,3]oxazin-6-yl]-carbamic acid tert-butyl ester]: in the data set with Vero cells, the “Cell viability (% of control)” value is on record as 79.8%. For the same molecule, the EC90 with HSV-1 is > 12.5 µM. Besides, the pIC50 at HSV-1 protease is 6.00.

For `Cc1c(NC(=O)OC(C)(C)C)ccc2nc(N[C@@H](CC3CCCCC3)C(=O)NCc3cccnc3)oc(=O)c12` [Compound No.27, (2-{2-Cyclohexyl-1S-[(pyridin-3-ylmethyl)-carbamoyl]-ethylamino}-5-methyl-4-oxo-4H-benzo[d][1,3]oxazin-6-yl)-carbamic acid tert-butyl ester], the “Cell viability (% of control)” value in the data set on Vero cells is listed as 103.0%. The EC90 with HSV-1 was > 25 µM. In addition, the pIC50 at HSV-1 protease is 5.06.

As to `CC(=O)OC(C(=O)Nc1ccc2nc(NC(C)(C)C(=O)N(C)CCc3ccccn3)oc(=O)c2c1C)c1ccccc1` (stereo not drawn) [Compound No.192, Acetic acid (5-methyl-2-{1-methyl-1-[methyl-(2-pyridin-2-yl-ethyl)-carbamoyl]-ethylamino}-4-oxo-4H-benzo[d][1,3]oxazin-6-ylcarbamoyl)-phenyl-methyl ester], the “Cell viability (% of control)” value in the data set with Vero cells came to 93.9%. Also, the EC90 in the data set on HSV-1 was > 12.5 µM. Moreover, the pIC50 at HSV-1 protease was 5.14.

For `Cc1c(NC(=O)c2ccc(F)cc2)ccc2nc(NC(C)(C)C(=O)N(C)CCc3ccccn3)oc(=O)c12` [Compound No.149, 4-Fluoro-N-(5-methyl-2-{1-methyl-1-[methyl-(2-pyridin-2-yl-ethyl)-carbamoyl]-ethylamino}-4-oxo-4H-benzo[d][1,3]oxazin-6-yl)-benzamide], the “Cell viability (% of control)” value in the data set with Vero cells worked out at 65.4%. This molecule also came in with an EC90 in the data set on HSV-1 of 10.6 µM. The pIC50 on HSV-1 protease is 5.82.

As to `Cc1c(NC(=O)c2cccc(Br)c2)ccc2nc(NC(C)(C)C(=O)N(C)CCc3ccccn3)oc(=O)c12` [Compound No.200, 3-Bromo-N-(5-methyl-2-{1-methyl-1-[methyl-(2-pyridin-2-yl-ethyl)-carbamoyl]-ethylamino}-4-oxo-4H-benzo[d][1,3]oxazin-6-yl)-benzamide], in the data set on Vero cells, the “Cell viability (% of control)” value was found to be 21.5%. In addition, it took 3.2 µM to reach the 90% level in the data set with HSV-1 (EC90). Moreover, the pIC50 on HSV-1 protease was 5.80.

On to `Cc1c(NC(=O)OC(C)(C)C)ccc2nc(NC3(C(=O)N(C)Cc4cccnc4)CCCCC3)oc(=O)c12` [Compound No.120, {5-Methyl-2-[1-(methyl-pyridin-3-ylmethyl-carbamoyl)-cyclohexylamino]-4-oxo-4H-benzo[d][1,3]oxazin-6-yl}-carbamic acid tert-butyl ester], for which, in the data set on HSV-1, the EC90 amounted to 10 µM. This molecule also gave a half-life at 19.6 μM in “Human plasma stability” of 893 min. The pIC50 on HSV-1 protease is 5.92.

In the case of `Cc1c(NC(=O)c2sc3ccccc3c2Cl)ccc2nc(NC(C)(C)C(=O)N(C)CCc3ccccn3)oc(=O)c12` [Compound No.178, 3-Chloro-benzo[b]thiophene-2-carboxylic acid (5-methyl-2-{1-methyl-1-[methyl-(2-pyridin-2-yl-ethyl)-carbamoyl]-ethylamino}-4-oxo-4H-benzo[d][1,3]oxazin-6-yl)-amide], the “Cell viability (% of control)” value in the data set on Vero cells is recorded as 28.1%. In the data set with HSV-1, this molecule displayed an EC90 of 5.8 µM. The pIC50 at HSV-1 protease was 6.05.

As to `Cc1c(NC(=O)OC(C)(C)C)ccc2nc(N(C)[C@@H](C)C(=O)N(C)CCc3ccccn3)oc(=O)c12` [Compound No.76, [5-Methyl-2-(methyl-{1S-[methyl-(2-pyridin-2-yl-ethyl)-carbamoyl]-ethyl}-amino)-4-oxo-4H-benzo[d][1,3]oxazin-6-yl]-carbamic acid tert-butyl ester], in the data set on Vero cells, the “Cell viability (% of control)” value came to 87.9%. For the same molecule, the EC90 in the data set with HSV-1 is > 12.5 µM. In addition, the pIC50 on HSV-1 protease is 5.68.
